Results as given in patent US20160158200A1, “Combinations of Hepatitis C Virus Inhibitors” (priority 2013, published 2016).

Tested on: HCV genotype-1a variant with glutamine 30 changed to glutamate in the NS5A protein
Type: cell-based
Settings: test compound titrated with BMS-790052 fixed at 200 nM; genotype 1a Q30E replicon
In short: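 Synergy was assessed by combining several fixed amounts of an NS5A-targeting compound with a titration of the second compound of interest.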

Compound	Fold-Synergistic 1a (Q30E) [fold]
CC(C)[C@H](NC(=O)c1ccccc1Cl)c1ncc(-c2ccc(-c3ccc(-c4cnc([C@@H](NC(=O)c5ccccc5Cl)C(C)C)[nH]4)cc3)cc2)[nH]1 [Compound S-65]	>100
COC(=O)NC(C(=O)N1CCCC1c1ncc(-c2ccc(-c3ccc(-c4cnc(C(NC(=O)C(C)(C)C)C(C)(C)C)[nH]4)cc3)cc2)[nH]1)C(C)C (centres unmarked) [Compound B-195]	>10
CC(C)(C)C(NC(=O)C1(C)CC1(F)F)c1nc(-c2ccc(-c3ccc(-c4c[nH]c(C(NC(=O)C5(C)CC5(F)F)C(C)(C)C)n4)cc3)cc2)c[nH]1 (single isomer, unassigned) [Compound L-58a]	>100
CC(C)(C)OC(=O)N1CCCC1C(=O)N[C@H](c1nc(-c2ccc(-c3ccc(-c4c[nH]c([C@@H](NC(=O)C5CCCN5C(=O)OC(C)(C)C)C(C)(C)C)n4)cc3)cc2)c[nH]1)C(C)(C)C (some centres unmarked) [Compound W-86]	>100
CC(C)(C)[C@H](NC(=O)C(=O)N1CCC(F)(F)CC1)c1nc(-c2ccc(-c3ccc(-c4c[nH]c([C@@H](NC(=O)C(=O)N5CCC(F)(F)CC5)C(C)(C)C)n4)cc3)cc2)c[nH]1 [Compound W-24]	>100
CC(C)[C@H](NC(=O)Cc1ncccn1)c1ncc(-c2ccc(-c3ccc(-c4cnc([C@@H](NC(=O)Cc5ncccn5)C(C)C)[nH]4)cc3)cc2)[nH]1 [Compound P-95]	>10
COc1cccc(C(=O)N[C@H](c2ncc(-c3ccc(-c4ccc(-c5cnc([C@@H](NC(=O)c6cccc(OC)c6)C(C)C)[nH]5)cc4)cc3)[nH]2)C(C)C)c1 [Compound S-77]	>100
CN(C(=O)C(C)(C)C)[C@H](c1ncc(-c2ccc(-c3ccc(-c4cnc([C@@H](N(C)C(=O)C(C)(C)C)C(C)(C)C)[nH]4)cc3)cc2)[nH]1)C(C)(C)C [Compound B-207]	<10
CC(C)(C)[C@H](NC(=O)C1(F)CCC(F)(F)CC1)c1nc(-c2ccc(-c3ccc(-c4c[nH]c([C@@H](NC(=O)C5(F)CCC(F)(F)CC5)C(C)(C)C)n4)cc3)cc2)c[nH]1 [Compound P-39]	>100
CCC(=O)NC1(C(=O)N[C@H](c2nc(-c3ccc(-c4ccc(-c5c[nH]c([C@@H](NC(=O)C6(NC(=O)CC)CCCCC6)C(C)(C)C)n5)cc4)cc3)c[nH]2)C(C)(C)C)CCCCC1 [Compound W-265]	>100
CC(C)[C@H](NC(=O)C(C)(C)c1ccccc1)c1ncc(-c2ccc(-c3ccc(-c4cnc([C@@H](NC(=O)C(C)(C)c5ccccc5)C(C)C)[nH]4)cc3)cc2)[nH]1 [Compound S-47]	>100
CC(=O)NC1(C(=O)N[C@H](c2nc(-c3ccc(-c4ccc(-c5c[nH]c([C@@H](NC(=O)C6(NC(C)=O)CCCCC6)C(C)(C)C)n5)cc4)cc3)c[nH]2)C(C)(C)C)CCCCC1 [Compound W-252]	>100
CC(C)OC(C)(C)C(=O)N[C@H](c1nc(-c2ccc(-c3ccc(-c4c[nH]c([C@@H](NC(=O)C(C)(C)OC(C)C)C(C)(C)C)n4)cc3)cc2)c[nH]1)C(C)(C)C [Compound Y-1]	>100
CC(C)[C@H](NC(=O)CCN1CCCC1=O)c1ncc(-c2ccc(-c3ccc(-c4cnc([C@@H](NC(=O)CCN5CCCC5=O)C(C)C)[nH]4)cc3)cc2)[nH]1 [Compound S-59]	<10
CC(C)[C@H](NC(=O)C1CCCCO1)c1ncc(-c2ccc(-c3ccc(-c4cnc([C@@H](NC(=O)C5CCCCO5)C(C)C)[nH]4)cc3)cc2)[nH]1 (single isomer, unassigned) [Compound Y-57]	>100
CC(C)(F)C(=O)N[C@H](c1ncc(-c2ccc(-c3ccc(-c4cnc([C@@H](NC(=O)C(C)(C)F)C5(C)CC5)[nH]4)cc3)cc2)[nH]1)C1(C)CC1 [Compound Y-36]	>100
CC(C)[C@H](NC(=O)C12CCC(C1)C(C)(C)C2O)c1nc(-c2ccc(-c3ccc(-c4c[nH]c([C@@H](NC(=O)C56CCC(C5)C(C)(C)C6O)C(C)C)n4)cc3)cc2)c[nH]1 (single isomer, unassigned) [Compound Y-113]	>100
C[C@@H]1CN(C(=O)C(=O)N[C@H](c2nc(-c3ccc(-c4ccc(-c5c[nH]c([C@@H](NC(=O)C(=O)N6C[C@@H](C)O[C@@H](C)C6)C(C)(C)C)n5)cc4)cc3)c[nH]2)C(C)(C)C)C[C@H](C)O1 [Compound W-45]	>100
CC(C)(C)[C@H](NC(=O)C1CC12CCOCC2)c1ncc(-c2ccc(-c3ccc(-c4cnc([C@@H](NC(=O)C5CC56CCOCC6)C(C)(C)C)[nH]4)cc3)cc2)[nH]1 (single isomer, unassigned) [Compound B71]	>100
CCCCC(=O)NC1(C(=O)N[C@H](c2nc(-c3ccc(-c4ccc(-c5c[nH]c([C@@H](NC(=O)C6(NC(=O)CCCC)CCCCC6)C(C)(C)C)n5)cc4)cc3)c[nH]2)C(C)(C)C)CCCCC1 [Compound W-253]	>100
Cc1ccc(S(=O)(=O)NC(c2nc(-c3ccc(-c4ccc(-c5c[nH]c(C(NS(=O)(=O)c6ccc(C)cc6)C(C)(C)C)n5)cc4)cc3)c[nH]2)C(C)(C)C)cc1 [Compound L-117]	>100

Compound	Fold-Synergistic 1a (Q30E) [fold]
CC(C)(Br)C(=O)N[C@H](c1nc(-c2ccc(-c3ccc(-c4c[nH]c([C@@H](NC(=O)C(C)(C)Br)C(C)(C)C)n4)cc3)cc2)c[nH]1)C(C)(C)C [Compound W-149]	>100
CN(C(=O)C1CCC(F)(F)CC1)[C@H](c1ncc(-c2ccc(-c3ccc(-c4cnc([C@@H](N(C)C(=O)C5CCC(F)(F)CC5)C(C)(C)C)[nH]4)cc3)cc2)[nH]1)C(C)(C)C [Compound B-206]	<10
Cc1c(F)cccc1C(=O)N[C@H](c1ncc(-c2ccc(-c3ccc(-c4cnc([C@@H](NC(=O)c5cccc(F)c5C)C(C)C)[nH]4)cc3)cc2)[nH]1)C(C)C [Compound S-97]	>100
CC(C)(C)[C@H](NC(=O)C12CCC(CC1)C2)c1nc(-c2ccc(-c3ccc(-c4c[nH]c([C@@H](NC(=O)C56CCC(CC5)C6)C(C)(C)C)n4)cc3)cc2)c[nH]1 [Compound S-261]	>100
O=C(C(=O)N1C(c2nc(-c3ccc(-c4ccc(-c5c[nH]c(C6CC7C[C@@H]7N6C(=O)C(=O)N6CCC(F)(F)CC6)n5)cc4)cc3)c[nH]2)C[C@@H]2CC21)N1CCC(F)(F)CC1 (some centres unmarked) [Compound W-243]	>100
COc1ccc(C(=O)N[C@H](c2ncc(-c3ccc(-c4ccc(-c5cnc([C@@H](NC(=O)c6ccc(OC)cc6)C(C)C)[nH]5)cc4)cc3)[nH]2)C(C)C)cc1 [Compound S-28]	>100
CC(C)[C@H](NC(=O)C(=O)C(C)(C)C(F)F)c1ncc(-c2ccc(-c3ccc(-c4cnc([C@@H](NC(=O)C(=O)C(C)(C)C(F)F)C(C)C)[nH]4)cc3)cc2)[nH]1 [Compound P-124]	>100
CC(C)[C@H](NC(=O)c1ccc(C#N)s1)c1ncc(-c2ccc(-c3ccc(-c4cnc([C@@H](NC(=O)c5ccc(C#N)s5)C(C)C)[nH]4)cc3)cc2)[nH]1 [Compound P-101]	>100
CC(C)(C)C(NC(=O)C1CCCO1)c1nc(-c2ccc(-c3ccc(-c4c[nH]c(C(NC(=O)C5CCCO5)C(C)(C)C)n4)cc3)cc2)c[nH]1 [Compound L-65]	>100
CC(C)[C@H](NC(=O)CC1CCCCC1)c1ncc(-c2ccc(-c3ccc(-c4cnc([C@@H](NC(=O)CC5CCCCC5)C(C)C)[nH]4)cc3)cc2)[nH]1 [Compound S-26]	>100
CN(C)C(=O)C(=O)NC1(C(=O)N[C@H](c2nc(-c3ccc(-c4ccc(-c5c[nH]c([C@@H](NC(=O)C6(NC(=O)C(=O)N(C)C)CCCCC6)C(C)(C)C)n5)cc4)cc3)c[nH]2)C(C)(C)C)CCCCC1 [Compound W-268]	>100
CC(C)COC(=O)N[C@@H](C(=O)N[C@H](c1ncc(-c2ccc(-c3ccc(-c4cnc([C@@H](NC(=O)[C@H](NC(=O)OCC(C)C)C(C)C)C(C)C)[nH]4)cc3)cc2)[nH]1)C(C)C)C(C)C [Compound S-246]	>100
CC(C)CC(=O)NC1(c2ncc(-c3ccc(-c4ccc(-c5cnc(C6(NC(=O)CC(C)C)CC=CC6)[nH]5)cc4)cc3)[nH]2)CC=CC1.O=C(O)C(F)(F)F.O=C(O)C(F)(F)F [Compound N-16]	<10
COC(=O)N(C)C1(C(=O)N[C@H](c2nc(-c3ccc(-c4ccc(-c5c[nH]c([C@@H](NC(=O)C6(N(C)C(=O)OC)CC6)C(C)(C)C)n5)cc4)cc3)c[nH]2)C(C)(C)C)CC1.O=C(O)C(F)(F)F.O=C(O)C(F)(F)F [Compound L-19]	>100
CC1([C@H](NC(=O)C2(C)CCCC[C@@H]2O)c2ncc(-c3ccc(-c4ccc(-c5cnc([C@@H](NC(=O)C6(C)CCCC[C@@H]6O)C6(C)CC6)[nH]5)cc4)cc3)[nH]2)CC1 (some centres unmarked) [Compound Y-116]	>100
CC(C)(C)C(NC(=O)C1C2COCC21)c1nc(-c2ccc(-c3ccc(-c4c[nH]c(C(NC(=O)C5C6COCC65)C(C)(C)C)n4)cc3)cc2)c[nH]1 [Compound L-67]	>100
O=C(N[C@H]1CCC[C@H]1c1nc(-c2ccc(-c3ccc(-c4c[nH]c([C@@H]5CCC[C@@H]5NC(=O)C5CCC(F)(F)CC5)n4)cc3)cc2)c[nH]1)C1CCC(F)(F)CC1 [Compound L-106]	>100
CC(C)(C)[C@H](NC(=O)Cc1noc2ccccc12)c1nc(-c2ccc(-c3ccc(-c4c[nH]c([C@@H](NC(=O)Cc5noc6ccccc56)C(C)(C)C)n4)cc3)cc2)c[nH]1 [Compound P-16]	>100
COC(=O)N(C)C1(C(=O)N[C@H](c2ncc(-c3ccc(-c4cc5ccc(-c6cnc([C@@H](NC(=O)C7(N(C)C(=O)OC)CC7)C(C)(C)C)[nH]6)cc5o4)cc3)[nH]2)C(C)(C)C)CC1.O=C(O)C(F)(F)F [Compound B63]	>10
CC(C)[C@H](NC(=O)[C@@H]1CCCCO1)c1ncc(-c2ccc(-c3ccc(-c4cnc([C@@H](NC(=O)[C@H]5CCCCO5)C(C)C)[nH]4)cc3)cc2)[nH]1 [Compound Y-56]	>100
